Assay results taken from patent US20230399359A1, “TETRAPEPTIDES, COMPOSITIONS COMPRISING THEM, AND THEIR COSMETIC USE” (Sederma, priority 2020, published 2023).
Residues, ends and D or L forms follow the SMILES beside them. *: point of attachment. Palmitoyl = CCCCCCCCCCCCCCCC(=O)*

How the values were obtained:
Format in all cases: cell-based
[1] = system: Fibronectine; experiment: ELISA assay of fibronectin synthesis in normal human fibroblast culture supernatants; conditions: NHF, 72 h contact, vs excipient control
Method: (§1) Normal human fibroblasts (NHF) in culture are brought into contact with the products to be tested or their excipient (negative control) for 72 h. At the end of the contact, the culture supernatants are removed, and the syntheses of the dermal macromolecules are estimated by ELISA assays. An estimate of cell viability is carried out by Hoechst assay to weight the obtained data.

[2] = system: Fibrillin 1; experiment: Immunofluorescence assay of Fibrillin 1 formation by normal human fibroblasts; conditions: NHF, five-day incubation, coverage density by image analysis
Method: Normal human fibroblasts (NHF) are cultured for at least 24 hours in fibroblast growth medium containing serum. Once confluence was reached, the cells are seeded, and the actives and corresponding controls diluted in a culture medium are added. At the end of a five-day incubation period, the supernatant is removed, the cells are washed with PBS and fixed. The cells are then incubated with the primary Fibrillin 1 monoclonal antibody (11C1.3) (Thermo Fisher) diluted in blocking buffer at a concentration of 1:200. The cells are incubated. The primary antibody is removed, and the cells are washed with PBS. The secondary antibody was added at a dilution of 1:1000 in blocking buffer, then removed and the cells are washed with PBS. The formation of Fibrillin 1 by the cells is visualized using a fluorescence microscope. The obtained images are analyzed using an image processing software assigning a numerical value to the coverage density.

[3] = system: Collagen IV; experiment: ELISA assay of collagen IV synthesis in normal human fibroblast culture supernatants; conditions: NHF, 72 h contact, vs excipient control
Method: as §1

[4] = system: Collagen I (PIP); experiment: ELISA assay of collagen I synthesis (PIP assay) in normal human fibroblast culture supernatants; conditions: NHF, 72 h contact, vs excipient control, weighted by Hoechst viability
Method: as §1
Collagen I is evaluated via the PIP assay (carboxy-terminal propeptide of procollagen type I) which is a peptide fragment resulting from the enzymatic degradation of procollagen when the latter is excreted outside the fibroblast (therefore in the culture medium where the assay is carried out).

[5] = system: Decorine; experiment: ELISA assay of decorin synthesis in normal human fibroblast culture supernatants; conditions: NHF, 72 h contact, vs excipient control
Method: as §1

| Compound | Fibronectine ([1]; concentrations of 5 to 15 ppm) | Fibrillin 1 (significance) ([2]; 12.5 ppm) | Collagen IV ([3]; concentrations of 5 to 15 ppm) | Collagen I (PIP) ([4]; concentrations of 5 to 15 ppm) | Decorine ([5]; concentrations of 5 to 15 ppm) | Fibronectine ([1]; concentrations of 2 to 3 ppm) | Fibrillin 1 (significance) ([2]; 2 ppm) | Collagen IV ([3]; concentrations of 2 to 3 ppm) | Collagen I (PIP) ([4]; concentrations of 2 to 3 ppm) | Decorine ([5]; concentrations of 2 to 3 ppm) |
| --- | --- | --- | --- | --- | --- | --- | --- | --- | --- | --- |
| CCCCCCCCCCCCCCCC(=O)N[C@@H](C)C(=O)N[C@H](C(=O)N1CCC[C@H]1C(=O)NCC(=O)O)C(C)C [Pal-AVPG-OH, palmitoyl-alanyl-valyl-prolyl-glycine] (Palmitoyl-AVPG-OH) | +38% | +121% (p < 0.05) | +35% | +94% | +20% | – | – | – | – | – |
| Pal-VPGA-OH: N-palmitoyl tetrapeptide Val-Pro-Gly-Ala with free C-terminal acid, prepared by the same synthetic process (Palmitoyl-VPGA-OH; SMILES CCCCCCCCCCCCCCCC(=O)N[C@H](C(=O)N1CCC[C@H]1C(=O)NCC(=O)N[C@@H](C)C(=O)O)C(C)C) | – | – | – | – | – | +115% | +92% (p < 0.05) | +49% | +42% | +69% |
